Calls of active or inactive are those of the source.
Legend:
[1] = Luminescence Cell-Based Dose Retest to Confirm Inhibitors of Cancer Stem Cells. [Related pubchem assays (depositor defined):AID2717, AID2721]; format: functional; settings: Homo sapiens
[2] = target: Intestinal-type alkaline phosphatase (Homo sapiens, UniProt P09923); test: inhibition of human intestinal alkaline phosphatase – biochemical, dose response (AID 488876); format: functional
Large T antigen = Large T antigen (Simian virus 40, UniProt P03070); format: functional, Betapolyomavirus macacae;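 also: Confirmatory-stage PubChem screen for compounds that inhibit SV40 T antigen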
[3] = target: T1, Zinc finger protein mex-5 (Caenorhabditis elegans, UniProt Q9XUB2); test: potency of MEX-5 RNA-binding blockers – biochemical, C. elegans, fluorescence polarization, dose response (AID 1960)
T1 sequence (Q9XUB2 whole entry): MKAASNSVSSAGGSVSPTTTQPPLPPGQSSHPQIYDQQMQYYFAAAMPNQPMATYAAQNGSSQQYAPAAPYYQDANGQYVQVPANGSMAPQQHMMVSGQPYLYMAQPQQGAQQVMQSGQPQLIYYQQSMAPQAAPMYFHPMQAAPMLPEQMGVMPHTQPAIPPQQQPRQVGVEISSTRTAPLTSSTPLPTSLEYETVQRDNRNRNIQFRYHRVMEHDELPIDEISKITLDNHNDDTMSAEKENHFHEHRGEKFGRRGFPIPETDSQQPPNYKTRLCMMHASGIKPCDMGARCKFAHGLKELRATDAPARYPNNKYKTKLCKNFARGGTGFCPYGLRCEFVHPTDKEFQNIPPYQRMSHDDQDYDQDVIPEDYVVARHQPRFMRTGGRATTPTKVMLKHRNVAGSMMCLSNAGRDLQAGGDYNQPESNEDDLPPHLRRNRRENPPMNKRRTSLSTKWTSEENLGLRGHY

[4] = target: cAMP-dependent protein kinase catalytic subunit PRKX (Homo sapiens, UniProt P51817); format: functional
[5] = target: Vascular endothelial growth factor receptor 1 (Homo sapiens, UniProt P17948); format: functional;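 also: measured within a kinome-wide profiling panel, FLT1 as the panel member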
Nonstructural protein 1 = Nonstructural protein 1 (Influenza A virus, UniProt Q194T2); format: functional, Influenza A virus (A/California/07/2009(H1N1))
BJ = test: BJ-TERT fibroblast viability loss – cell-based, RAS-independent, luminescence, dose response (AID 1933); format: functional; settings: Homo sapiens
[6] = target: T2, Heat shock factor protein 1 (Mus musculus, UniProt P38532); test: decrease of HSF1-responsive luciferase luminescence – cell-based, NIH3T3, dose retest, confirmation (AID 2382); format: functional;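 also: NIH3T3 fibroblasts with HSF1-driven luciferase reporter stressed by proteasome inhibitor MG132; luminescence from HSF1-driven luciferase expression after 8 hours of MG132 stress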
T2 sequence (P38532 whole entry): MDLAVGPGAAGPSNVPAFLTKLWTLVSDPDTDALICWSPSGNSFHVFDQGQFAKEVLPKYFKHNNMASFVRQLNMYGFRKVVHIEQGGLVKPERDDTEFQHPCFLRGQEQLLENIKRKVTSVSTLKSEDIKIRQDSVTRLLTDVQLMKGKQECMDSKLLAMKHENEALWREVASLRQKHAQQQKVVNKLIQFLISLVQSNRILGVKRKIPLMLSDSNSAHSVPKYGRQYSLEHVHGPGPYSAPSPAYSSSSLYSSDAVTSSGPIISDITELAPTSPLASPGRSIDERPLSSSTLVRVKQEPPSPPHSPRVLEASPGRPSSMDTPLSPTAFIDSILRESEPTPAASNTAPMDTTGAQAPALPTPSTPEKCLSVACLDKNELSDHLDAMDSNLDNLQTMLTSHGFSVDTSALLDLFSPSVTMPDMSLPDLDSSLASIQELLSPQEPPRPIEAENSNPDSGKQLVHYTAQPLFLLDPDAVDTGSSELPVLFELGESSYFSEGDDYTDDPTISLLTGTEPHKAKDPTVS

[7] = bead-based luminescence quenchers, dual-tagged ARNT – biochemical, AlphaScreen, cherry-pick, artefact control for ARNT-TACC3 interaction inhibitor project, dose response (AID 651705); format: functional;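 also: AlphaScreen bead proximity signal that flags compounds interfering with the detection technology; potency reflects signal decrease which marks the compound as an assay artifact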
Aminopeptidase N = target: T3, Aminopeptidase N (Plasmodium falciparum FcB1/Columbia, UniProt O96935); test: malaria alanyl aminopeptidase activity blockers – biochemical, fluorogenic H-Leu-NHMec substrate, 1536-well (AID 1445); design: species or system Plasmodium falciparum 3D7, 3D7
T3 sequence (O96935 whole entry): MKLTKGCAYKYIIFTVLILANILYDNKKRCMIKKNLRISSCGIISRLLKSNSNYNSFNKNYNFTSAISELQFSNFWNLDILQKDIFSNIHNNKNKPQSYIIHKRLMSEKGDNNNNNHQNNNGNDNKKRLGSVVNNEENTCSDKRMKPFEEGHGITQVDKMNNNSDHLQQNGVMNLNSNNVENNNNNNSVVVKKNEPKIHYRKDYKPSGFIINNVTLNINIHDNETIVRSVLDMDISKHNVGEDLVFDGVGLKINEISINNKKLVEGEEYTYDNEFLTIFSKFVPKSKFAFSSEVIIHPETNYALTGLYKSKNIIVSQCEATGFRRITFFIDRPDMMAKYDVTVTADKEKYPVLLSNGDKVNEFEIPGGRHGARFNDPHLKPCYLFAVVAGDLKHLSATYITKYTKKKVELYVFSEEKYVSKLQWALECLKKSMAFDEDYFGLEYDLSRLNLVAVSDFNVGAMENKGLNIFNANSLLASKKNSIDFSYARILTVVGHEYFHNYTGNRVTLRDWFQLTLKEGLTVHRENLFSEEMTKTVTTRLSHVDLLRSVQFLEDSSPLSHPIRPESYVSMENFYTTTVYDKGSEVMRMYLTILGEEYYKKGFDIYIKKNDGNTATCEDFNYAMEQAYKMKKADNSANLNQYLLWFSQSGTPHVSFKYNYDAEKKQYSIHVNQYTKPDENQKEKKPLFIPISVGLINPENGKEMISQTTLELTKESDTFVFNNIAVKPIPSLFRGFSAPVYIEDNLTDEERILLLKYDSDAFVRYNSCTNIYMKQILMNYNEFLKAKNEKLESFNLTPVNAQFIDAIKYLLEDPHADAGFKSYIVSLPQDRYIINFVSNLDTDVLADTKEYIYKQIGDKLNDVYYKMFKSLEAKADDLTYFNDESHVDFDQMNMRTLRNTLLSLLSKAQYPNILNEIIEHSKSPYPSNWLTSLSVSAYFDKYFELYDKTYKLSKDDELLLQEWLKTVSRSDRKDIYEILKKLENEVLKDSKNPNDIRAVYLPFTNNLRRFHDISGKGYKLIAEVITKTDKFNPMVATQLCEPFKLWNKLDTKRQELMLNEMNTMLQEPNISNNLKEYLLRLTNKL

[8] = target: Serine/threonine-protein kinase PLK4 (Homo sapiens, UniProt O00444); format: functional;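 also: PLK4 measured as one member of a kinome-wide kinase profiling panel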
[9] = target: Testis-specific serine/threonine-protein kinase 2 (Homo sapiens, UniProt Q96PF2); format: functional;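 also: part of the Navigating the Kinome panel, target entry STK22B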
[10] = target: Casein kinase I isoform gamma-1 (Homo sapiens, UniProt Q9HCP0); format: functional;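 also: measured as the CSNK1G1 member of a kinome profiling panel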
[11] = target: RAC-gamma serine/threonine-protein kinase (Homo sapiens, UniProt Q9Y243); format: functional

Sequence of cAMP-dependent protein kinase catalytic subunit PRKX (P51817 whole entry): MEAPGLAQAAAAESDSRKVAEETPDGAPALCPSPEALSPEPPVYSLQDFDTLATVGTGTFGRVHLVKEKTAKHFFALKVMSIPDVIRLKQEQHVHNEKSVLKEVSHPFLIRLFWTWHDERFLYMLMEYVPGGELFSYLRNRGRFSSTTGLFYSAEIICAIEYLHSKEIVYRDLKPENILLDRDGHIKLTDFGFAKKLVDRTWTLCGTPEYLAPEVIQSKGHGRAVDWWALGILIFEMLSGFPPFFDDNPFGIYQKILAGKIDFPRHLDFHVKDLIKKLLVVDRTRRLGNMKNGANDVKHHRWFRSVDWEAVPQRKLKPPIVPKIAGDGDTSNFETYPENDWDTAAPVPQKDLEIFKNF
Sequence of Large T antigen (P03070 whole entry): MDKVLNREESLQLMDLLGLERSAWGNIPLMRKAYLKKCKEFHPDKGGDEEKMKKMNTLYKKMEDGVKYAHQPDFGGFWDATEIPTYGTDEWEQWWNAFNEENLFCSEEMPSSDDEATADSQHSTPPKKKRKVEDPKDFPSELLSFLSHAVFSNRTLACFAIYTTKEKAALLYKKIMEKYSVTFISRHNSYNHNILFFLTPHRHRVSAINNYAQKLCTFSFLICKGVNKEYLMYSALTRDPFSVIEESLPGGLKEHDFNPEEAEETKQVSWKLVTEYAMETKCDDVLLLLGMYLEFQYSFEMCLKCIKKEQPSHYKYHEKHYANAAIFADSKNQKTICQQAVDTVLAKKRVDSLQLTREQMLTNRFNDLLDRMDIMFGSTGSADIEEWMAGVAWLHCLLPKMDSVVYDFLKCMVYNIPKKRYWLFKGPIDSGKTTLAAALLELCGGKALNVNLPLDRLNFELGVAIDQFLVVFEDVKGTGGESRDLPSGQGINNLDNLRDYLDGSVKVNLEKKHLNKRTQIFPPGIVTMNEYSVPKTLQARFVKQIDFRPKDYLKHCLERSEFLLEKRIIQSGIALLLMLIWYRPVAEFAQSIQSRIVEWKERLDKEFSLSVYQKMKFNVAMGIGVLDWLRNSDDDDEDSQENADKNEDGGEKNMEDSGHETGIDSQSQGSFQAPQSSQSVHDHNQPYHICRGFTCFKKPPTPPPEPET
Sequence of Casein kinase I isoform gamma-1 (Q9HCP0 whole entry, canonical isoform): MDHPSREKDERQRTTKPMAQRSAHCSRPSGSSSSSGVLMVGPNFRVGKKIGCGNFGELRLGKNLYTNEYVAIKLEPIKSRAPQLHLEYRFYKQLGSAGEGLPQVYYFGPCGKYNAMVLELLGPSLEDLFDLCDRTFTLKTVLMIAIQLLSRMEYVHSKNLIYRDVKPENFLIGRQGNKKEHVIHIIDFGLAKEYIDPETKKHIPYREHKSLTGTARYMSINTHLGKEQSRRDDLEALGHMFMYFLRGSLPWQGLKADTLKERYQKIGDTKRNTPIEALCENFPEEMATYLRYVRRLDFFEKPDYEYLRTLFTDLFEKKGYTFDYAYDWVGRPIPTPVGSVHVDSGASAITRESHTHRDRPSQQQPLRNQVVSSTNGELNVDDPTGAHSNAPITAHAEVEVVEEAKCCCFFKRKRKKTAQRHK
Sequence of Serine/threonine-protein kinase PLK4 (O00444 whole entry): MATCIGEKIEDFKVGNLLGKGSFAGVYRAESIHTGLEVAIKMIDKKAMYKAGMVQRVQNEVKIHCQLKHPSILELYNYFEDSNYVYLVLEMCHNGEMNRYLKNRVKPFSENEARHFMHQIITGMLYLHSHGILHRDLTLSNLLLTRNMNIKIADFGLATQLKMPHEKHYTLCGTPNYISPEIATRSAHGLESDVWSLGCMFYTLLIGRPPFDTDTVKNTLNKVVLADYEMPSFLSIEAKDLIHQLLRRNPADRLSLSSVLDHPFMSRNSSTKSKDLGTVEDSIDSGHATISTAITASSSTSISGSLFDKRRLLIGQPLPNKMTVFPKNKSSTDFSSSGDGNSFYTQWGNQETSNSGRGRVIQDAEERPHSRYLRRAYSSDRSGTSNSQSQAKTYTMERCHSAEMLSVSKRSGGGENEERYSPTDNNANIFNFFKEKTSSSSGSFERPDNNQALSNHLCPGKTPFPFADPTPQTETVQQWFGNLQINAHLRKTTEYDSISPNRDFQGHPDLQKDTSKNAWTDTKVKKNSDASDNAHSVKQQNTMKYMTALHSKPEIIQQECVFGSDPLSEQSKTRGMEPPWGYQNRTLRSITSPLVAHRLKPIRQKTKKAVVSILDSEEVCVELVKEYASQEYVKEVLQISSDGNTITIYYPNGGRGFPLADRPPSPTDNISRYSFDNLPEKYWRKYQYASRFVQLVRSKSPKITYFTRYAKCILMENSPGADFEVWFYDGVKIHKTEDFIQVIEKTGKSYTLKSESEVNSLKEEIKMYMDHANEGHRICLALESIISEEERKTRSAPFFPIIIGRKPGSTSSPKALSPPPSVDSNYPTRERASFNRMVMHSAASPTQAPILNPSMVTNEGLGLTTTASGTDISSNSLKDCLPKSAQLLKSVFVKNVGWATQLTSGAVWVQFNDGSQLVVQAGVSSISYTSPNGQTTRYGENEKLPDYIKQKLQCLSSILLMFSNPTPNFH
Sequence of Nonstructural protein 1 (Q194T2 whole entry): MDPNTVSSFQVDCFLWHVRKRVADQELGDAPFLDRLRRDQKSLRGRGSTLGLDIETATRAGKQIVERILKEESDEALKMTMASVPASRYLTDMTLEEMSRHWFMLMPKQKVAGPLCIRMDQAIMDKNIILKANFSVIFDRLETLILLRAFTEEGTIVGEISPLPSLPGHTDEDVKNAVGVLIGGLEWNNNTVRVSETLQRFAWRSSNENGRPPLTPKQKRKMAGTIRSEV
Sequence of Testis-specific serine/threonine-protein kinase 2 (Q96PF2 whole entry, canonical isoform): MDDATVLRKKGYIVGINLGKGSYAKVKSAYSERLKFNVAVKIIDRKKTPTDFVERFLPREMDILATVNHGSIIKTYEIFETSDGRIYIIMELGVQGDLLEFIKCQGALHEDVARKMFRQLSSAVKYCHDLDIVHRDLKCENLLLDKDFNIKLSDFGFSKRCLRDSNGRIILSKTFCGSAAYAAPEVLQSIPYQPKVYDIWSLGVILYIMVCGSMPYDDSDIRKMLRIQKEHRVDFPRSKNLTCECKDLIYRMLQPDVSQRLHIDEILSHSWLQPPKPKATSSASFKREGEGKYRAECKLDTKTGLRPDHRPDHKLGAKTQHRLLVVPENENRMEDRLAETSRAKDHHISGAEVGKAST
Sequence of Intestinal-type alkaline phosphatase (P09923 whole entry): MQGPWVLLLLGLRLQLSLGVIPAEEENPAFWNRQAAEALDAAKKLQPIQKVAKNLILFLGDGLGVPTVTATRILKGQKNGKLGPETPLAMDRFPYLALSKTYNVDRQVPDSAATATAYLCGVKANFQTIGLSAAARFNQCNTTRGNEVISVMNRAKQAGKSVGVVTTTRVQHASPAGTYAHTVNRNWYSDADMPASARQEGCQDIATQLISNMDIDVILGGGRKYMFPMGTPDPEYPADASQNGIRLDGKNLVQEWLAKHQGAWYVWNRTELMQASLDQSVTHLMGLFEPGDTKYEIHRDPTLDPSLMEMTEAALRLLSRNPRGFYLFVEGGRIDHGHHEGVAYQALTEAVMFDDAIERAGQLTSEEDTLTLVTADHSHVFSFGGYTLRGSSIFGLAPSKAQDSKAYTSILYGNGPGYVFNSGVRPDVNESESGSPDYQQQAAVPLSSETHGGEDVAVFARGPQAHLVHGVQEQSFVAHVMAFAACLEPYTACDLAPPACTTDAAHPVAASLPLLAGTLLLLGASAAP
Sequence of Vascular endothelial growth factor receptor 1 (P17948 whole entry): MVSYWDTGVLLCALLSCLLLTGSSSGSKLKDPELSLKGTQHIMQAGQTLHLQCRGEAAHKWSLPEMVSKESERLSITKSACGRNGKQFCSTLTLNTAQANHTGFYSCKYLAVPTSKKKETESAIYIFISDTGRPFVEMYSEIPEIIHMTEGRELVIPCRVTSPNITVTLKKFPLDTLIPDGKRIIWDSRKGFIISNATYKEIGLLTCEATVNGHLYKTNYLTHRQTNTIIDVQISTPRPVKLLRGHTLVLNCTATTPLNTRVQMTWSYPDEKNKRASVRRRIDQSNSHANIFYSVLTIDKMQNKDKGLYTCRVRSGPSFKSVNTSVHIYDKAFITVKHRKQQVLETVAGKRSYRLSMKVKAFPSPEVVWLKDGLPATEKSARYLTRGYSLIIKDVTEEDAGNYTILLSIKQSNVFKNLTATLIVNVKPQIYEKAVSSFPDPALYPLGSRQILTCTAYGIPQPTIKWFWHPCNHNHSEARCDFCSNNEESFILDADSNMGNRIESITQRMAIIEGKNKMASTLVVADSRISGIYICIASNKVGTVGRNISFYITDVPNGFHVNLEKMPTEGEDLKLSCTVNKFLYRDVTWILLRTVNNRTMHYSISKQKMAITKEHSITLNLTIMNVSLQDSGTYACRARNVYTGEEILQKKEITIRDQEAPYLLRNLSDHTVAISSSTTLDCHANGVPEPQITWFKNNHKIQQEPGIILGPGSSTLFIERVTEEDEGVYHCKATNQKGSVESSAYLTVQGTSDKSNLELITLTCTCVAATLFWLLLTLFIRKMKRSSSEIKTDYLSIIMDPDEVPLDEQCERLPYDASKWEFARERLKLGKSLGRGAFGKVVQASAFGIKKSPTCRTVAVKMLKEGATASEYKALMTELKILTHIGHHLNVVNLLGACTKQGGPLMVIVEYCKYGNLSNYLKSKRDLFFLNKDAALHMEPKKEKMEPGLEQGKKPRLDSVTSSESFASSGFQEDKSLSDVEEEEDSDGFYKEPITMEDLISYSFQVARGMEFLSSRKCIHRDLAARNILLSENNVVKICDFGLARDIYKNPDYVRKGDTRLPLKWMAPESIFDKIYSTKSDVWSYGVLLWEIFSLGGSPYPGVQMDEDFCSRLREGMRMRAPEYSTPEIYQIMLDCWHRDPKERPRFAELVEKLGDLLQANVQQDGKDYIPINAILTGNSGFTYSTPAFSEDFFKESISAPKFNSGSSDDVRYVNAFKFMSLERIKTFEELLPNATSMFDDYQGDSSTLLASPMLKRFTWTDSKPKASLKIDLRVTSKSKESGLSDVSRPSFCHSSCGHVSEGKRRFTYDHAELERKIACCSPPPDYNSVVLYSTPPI

Compound: O=C1/C(=C\c2cccc(O)c2O)SC(=S)N1Cc1ccccc1
- AC50 [1]: 1.67 µM (active)
- IC50 [2]: > 100 µM (inactive)

Compound: COc1cccc2c1NC(C(=O)O)C1CC=CC21 (stereo not given)
- IC50 (Large T antigen): 42.5 µM (active)
- EC50 [3]: 8.25 µM (active)

Compound: COc1c(-c2nc3ccccc3[nH]2)c(O)cc2oc(C)cc(=O)c12
- Ki [4]: > 3.16 µM (inactive)
- Ki [5]: 2 µM (active)

Compound: CCc1ccc(S(=O)(=O)/N=C2\C=C(Nc3ccc(O)cc3)C(=O)c3ccccc32)cc1
- IC50 (Nonstructural protein 1): 5.88 µM (active)
- EC50 (BJ): 1.51 µM (active)
- EC50 [6]: 1.16 µM (active)

Compound: Cc1cc([N+](=O)[O-])cc(/C=N\NC(=O)C2COc3ccccc3O2)c1O (stereo not given)
- AC50 [7]: 93.6 µM (active)
- IC50 (Aminopeptidase N): 3.05 µM (active)

Compound: Cc1ccc(F)c(NC(=O)Nc2ccc(-c3cccc4[nH]nc(N)c34)cc2)c1 [LINIFANIB]
- Ki [8]: 631 nM (active)
- Ki [9]: > 1.58 µM (inactive)
- Ki [10]: 5.01 µM (active)
- Ki [11]: > 10 µM (inactive)
